Where “and” joins values, the source holds several entries; their conditions need not be identical. Equal values may be shown once. Entries after “also recorded” stand apart in the source; their conditions may differ.
Key:
Tetrahymena thermophila = experiment: microbe, parasite or virus in culture; type: cell-based
Protocol: The tests were performed in accordance with the protocols provided by the manufacturer. […] The tests were carried out in disposable spectrophotometric cells of 1 cm path-length, to enable the measurement of the optical density (OD) at 440 nm. […] This change in OD over the time period is used to quantify the degree of inhibition and subsequent calculation of the EC50. Each concentration was repeated in duplicate.

D. magna = details: ref [34]; cited from earlier work
[1] = Activated sludge simulating microcosms (degradation of FL, formation of NFL); type: physicochemical; details: for transformation / removal: 24 h
Protocol: Activated sludge microcosm experiments were conducted in the dark and aerobic conditions. Three microcosm bioreactors were investigated in duplicate. They were filled with 2 L of fresh activated sludge collected from a local wastewater treatment plant. […] Dark conditions were simulated by covering up the flask with foil. Aerobic conditions were obtained using air from BOC air cylinder and a thorough mixing was maintained using magnetic stirrers. The experiment was 24 hours long. […] Collected samples were subsequently frozen until their analysis to prevent degradation of compounds.
The compounds studied are characterized as having low volatility and therefore volatilization was not considered as a potential removal pathway in studied microcosms. Photodegradation was also not considered (not relevant) under tested activated sludge conditions. Therefore the two important degradation mechanisms to consider were biodegradation and sorption to sludge. […] However, in this study, sorption equilibrium was assumed and therefore sorption could be considered negligible. This is because sorption is assumed to be fast when compared to biological degradation.
Several reports utilized pseudo-first-order kinetics for degradation of micropollutants in activated sludge reactors[48]–[50]. […] Pseudo-first order biodegradation rate k1 [L g^−1h^−1]

Daphnia magna = Daphnia magna acute 48 h immobilization assay (Daphtoxkit); type: in vivo; details: 48 h;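 also: test concentrations in mg per L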
Protocol: Six concentration levels (5 concentrations plus control, four replicate beakers for each concentrations, five individual for each beaker) were tested. […] Each experiment was repeated in triplicate.

[2] = River water simulating microcosms (degradation of FL); details: for removal of FL: river water
P. promelas = details: ref [34]; cited from earlier work
[3] = ref [3], cited from earlier work
[4] = 10 µg L^−1 microcosm, first 30 minutes

With `CNCC[C@@H](Oc1ccc(C(F)(F)F)cc1)c1ccccc1` [(R)-FL, (R)-N-Methyl-3-(4-trifluoromethylphenoxy)-3-phenylpropylamine] the “times more toxic than (S)-FL” value (Tetrahymena thermophila; Tetrahymena thermophila) was 30 ×, the “% I (percentage inhibition)” value (Tetrahymena thermophila; definitive test, conc. 0.086) was -8.032% and the “% I (percentage inhibition)” value (Tetrahymena thermophila; definitive test, conc. 24.098) was 91.516%. The “% I (percentage inhibition)” value (Tetrahymena thermophila; definitive test, conc. 79.522) was 90.724%, the “% I (percentage inhibition)” value (Tetrahymena thermophila; range test, conc. 0.005) was -3.105% and the “% I (percentage inhibition)” value (Tetrahymena thermophila; range test, conc. 0.050) was 5.433%. For the same compound, the “% I (percentage inhibition)” value (Tetrahymena thermophila; range test, conc. 0.500) was -1.164%, the “% I (percentage inhibition)” value (Tetrahymena thermophila; range test, conc. 5.000) was 39.974% and the LOEC21d -grazing (D. magna) was “none”. The LOEC21d -immobilization (D. magna) was 0.43 mg/L, the LOEC21d -reproduction (D. magna) was 0.43 mg/L and the degradation ([1]; 10 µg L^−1) was “lack of degradation; also recorded: No degradation”. The kbiol ([1]; 100 µg L^−1) was 0.01 LgSS ^−1h^−1, the t1/2biol ([1]; 100 µg L^−1) was 68 h and 68.0 h and the k1 ([1]; 100 µg L^−1, pseudo-first order) was 0.02 h⁻¹. The transformation / removal ([1]; 100 µg L^−1 microcosm) was 38%, the “Average effect (N immobile, 5 daphnids per replicate)” value (Daphnia magna; concentration 0.5) was 0 and the “Average effect (N immobile, 5 daphnids per replicate)” value (Daphnia magna; concentration 1.5) was 0.25. For the same compound, the “Average effect (N immobile, 5 daphnids per replicate)” value (Daphnia magna; concentration 5) was 3.25, the “Average effect (N immobile, 5 daphnids per replicate)” value (Daphnia magna; concentration 16) was 5 and the “Average effect (N immobile, 5 daphnids per replicate)” value (Daphnia magna; concentration 50) was 5. The “removal of FL” value ([2]; dark biotic conditions (DBR), 1 µg L^−1 racemic FL, 16 days) was 67.9%, the “removal of FL” value ([2]; light abiotic conditions (LAR), 1 µg L^−1 racemic FL, 16 days) was 79.2% and the “removal of FL” value ([2]; light biotic reactor (LBR), 1 µg L^−1 racemic FL, 16 days) was 96.7%. The LOEC7d -feeding (P. promelas) was 0.17 mg/L, the LOEC7d -growth (P. promelas) was 0.17 mg/L and the LOEC7d -survival (P. promelas) was 0.17 mg/L.
In the case of `CNCCC(Oc1ccc(C(F)(F)F)cc1)c1ccccc1` (stereo not drawn) [FL, Fluoxetine, reference compound], the “excreted in the urine as this species” value ([3]; after FL) is given as 11.6%, the “excreted in the feces” value [3] is given as “approximately 15%” and the “excreted in the urine” value [3] is given as 80%. For the same compound, the EF ([1]; 10 µg L-1 microcosm, time 0) was 0.484, the EF ([1]; 10 µg L-1 microcosm, time 0.5) was 0.504 and the EF ([1]; 10 µg L-1 microcosm, time 1) was 0.347. The EF ([1]; 10 µg L-1 microcosm, time 1.5) was 0.499, the EF ([1]; 10 µg L-1 microcosm, time 2) was 0.480 and the EF ([1]; 10 µg L-1 microcosm, time 3) was 0.499. It also gave an EF ([1]; 10 µg L-1 microcosm, time 5) of 0.429, an EF ([1]; 10 µg L-1 microcosm, time 8) of 0.461 and an EF ([1]; 10 µg L-1 microcosm, time 12) of 0.263. The EF ([1]; 10 µg L-1 microcosm, time 24) was 0.260, the lag phase ([1]; 10 µg L^−1 FL bioreactor) was 3 h and the “degradation (rapid removal from aqueous phase)” value [1, 4] was 50%. The “enantiomeric fraction (EF)” value [1, 4] was 0.5, the “enantiomeric fraction (EF)” value ([1]; 10 µg L^−1 reactor, after further slow removal) was under 0.3 and the EF ([1]; 100 µg L-1 microcosm, time 0) was 0.531. The EF ([1]; 100 µg L-1 microcosm, time 0.5) was 0.519, the EF ([1]; 100 µg L-1 microcosm, time 1) was 0.515 and the EF ([1]; 100 µg L-1 microcosm, time 1.5) was 0.516. It also gave an EF ([1]; 100 µg L-1 microcosm, time 2) of 0.511, an EF ([1]; 100 µg L-1 microcosm, time 3) of 0.477 and an EF ([1]; 100 µg L-1 microcosm, time 5) of 0.431. The EF ([1]; 100 µg L-1 microcosm, time 8) was 0.410, the EF ([1]; 100 µg L-1 microcosm, time 12) was 0.326 and the EF ([1]; 100 µg L-1 microcosm, time 24) was 0.257. The lag phase ([1]; 100 µg L^−1 FL bioreactor) was 2 h, the “enantiomeric fraction (EF)” value ([1]; 100 µg L^−1 microcosm) was under 0.3 and the transformation / removal ([1]; 100 µg L^−1 microcosm) was 60%. The EF ([2]; DAR (dark abiotic), day 1) was 0.499, the EF ([2]; DAR (dark abiotic), day 2) was 0.502 and the EF ([2]; DAR (dark abiotic), day 3) was 0.504. It also gave an EF ([2]; DAR (dark abiotic), day 4) of 0.507, an EF ([2]; DAR (dark abiotic), day 9) of 0.497 and an EF ([2]; DAR (dark abiotic), day 10) of 0.505. It also gave an EF ([2]; DAR (dark abiotic), day 11) of 0.526, an EF ([2]; DAR (dark abiotic), day 15) of 0.497 and an EF ([2]; DBR (dark biotic), day 1) of 0.506. The EF ([2]; DBR (dark biotic), day 2) was 0.468, the EF ([2]; DBR (dark biotic), day 3) was 0.496 and the EF ([2]; DBR (dark biotic), day 4) was 0.503. For the same compound, the EF ([2]; DBR (dark biotic), day 5) was 0.495, the EF ([2]; DBR (dark biotic), day 8) was 0.441 and the EF ([2]; DBR (dark biotic), day 9) was 0.499. The EF ([2]; DBR (dark biotic), day 10) was 0.507, the EF ([2]; DBR (dark biotic), day 11) was 0.495 and the EF ([2]; DBR (dark biotic), day 12) was 0.490. The EF ([2]; DBR (dark biotic), day 15) was 0.538, the EF ([2]; DBR (dark biotic), day 16) was 0.554 and the EF ([2]; LAR (light abiotic), day 1) was 0.497. The EF ([2]; LAR (light abiotic), day 2) was 0.488, the EF ([2]; LAR (light abiotic), day 3) was 0.491 and the EF ([2]; LAR (light abiotic), day 4) was 0.498. For the same compound, the EF ([2]; LAR (light abiotic), day 5) was 0.511, the EF ([2]; LAR (light abiotic), day 8) was 0.508 and the EF ([2]; LAR (light abiotic), day 9) was 0.513. The EF ([2]; LAR (light abiotic), day 10) was 0.511, the EF ([2]; LAR (light abiotic), day 11) was 0.512 and the EF ([2]; LAR (light abiotic), day 12) was 0.487. The EF ([2]; LAR (light abiotic), day 15) was 0.531, the EF ([2]; LAR (light abiotic), day 16) was 0.535 and the EF ([2]; LBR (light biotic), day 1) was 0.493. It also gave an EF ([2]; LBR (light biotic), day 2) of 0.493, an EF ([2]; LBR (light biotic), day 3) of 0.498 and an EF ([2]; LBR (light biotic), day 4) of 0.502. The EF ([2]; LBR (light biotic), day 5) was 0.508, the EF ([2]; LBR (light biotic), day 8) was 0.537 and the EF ([2]; LBR (light biotic), day 9) was 0.512. It also gave an EF ([2]; LBR (light biotic), day 10) of 0.497, an EF ([2]; LBR (light biotic), day 11) of 0.498 and an EF ([2]; LBR (light biotic), day 12) of 0.491. The EF ([2]; LBR (light biotic), day 15) was 0.525, the EF ([2]; LBR (light biotic), day 16) was 0.467 and the “removal of FL” value ([2]; dark abiotic conditions (DAR)) was “did not lead to any significant removal”.

— paper PMC5693942 (Scientific Reports, 2017)
